In patent US4237135A, “2-(4-Ethyl-1-piperazinyl)-4-phenylquinoline, process for preparation thereof, and composition thereof” (Dainippon Pharmaceutical Co., Ltd., priority 1978, dated 1980):
Where two headings read alike, the source gives them in different places.

Legend:
tremorine-induced tremor = experiment: Anti-tremorine activity (antagonistic effect on tremorine-induced tremor); type: in vivo, male STD-ddY strain mice
Experimental: (§1) Pharmacological experiments have been done on the compound of the present invention, some known and novel analogous compounds and an antidepressant on the market, as mentioned below. In the experiments, ED50 was calculated by Litchfield-Wilcoxon method.
Male STD-ddY strain mice, weighing 20-25 g, were used in groups of 5 mice each. Each test compound was given orally to the mice in 5 different doses, and 2 hours later 20 mg/kg of tremorine was injected intraperitoneally. Half an hour after the injection of tremorine, each mouse was examined macroscopically for tremor severity, according to the rating scale with the scores 0, 1, 2, and 3 depending on the severity. ED50 was calculated for each compound. The ED50 means the dose of test compound in which the tremorine-induced tremor was inhibited by 50% in severity.

[1] = system: brain 5-hydroxyindoleacetic acid (5-HIAA); experiment: Effect on brain monoamine metabolites: 5-HIAA; type: in vivo, male Wistar strain rats; settings: 100 mg/kg p.o.; for Brain 5-HIAA, % of control: *P<0.01
Experimental: (§2) Each test compound was given orally to the rats in a dose of 100 mg/kg and, 1, 3 and 6 hours later the rats were sacrificed. […] The concentrations of the monoamine metabolites were calculated in terms of ng/g wet brain tissue and expressed as % of the concentrations of controls receiving saline.

antidepressant activity = experiment: Antidepressant activity, overall (Test 1); type: in vivo, male STD-ddY strain mice; male Wistar strain rats
Experimental: This effect was examined according to the method of […]. 2, 725 (1963)], using male STD-ddY strain mice weighing 20-25 g. […] Rectal temperature of each mouse was measured 4 hours later with a thermister (Shibaura Electric, BMG III-130). […] Male STD-ddY strain mice, weighing […], were used in groups of 10 mice each. […] The mice were tested for catalepsy 1 hour after the administration of test compounds. ED50 was calculated for each compound. […] Male STD-ddY strain mice, weighing 20-25 g, were used in groups of 10 mice each. […] Two hours after the tetrabenazine injection, the degree of eyelid closure (ptosis) was assessed on the basis of macroscopic scoring (0: no closure of the eyelid, 1: 1/4 closure, 2: 2/4 closure, 3: 3/4 closure and 4: complete closure), essentially according to the method of P. A. J. Janssen [Arzneim. Forsch. 15, 104 (1965)]. ED50 was calcuated for each compound. […] Male Wistar strain rats, weighing 240-260 g, which had developed mouse-killing behavior after ablation of the olfactory bulb according to the method of Z. P. Horovitz [Int. J. Neuropharmacol. 5, 405 (1966)], were used in groups of 15 animals each. […] ED50 was calculated for each compound.

[2] = system: mouse-killing behavior of olfactory bulb-ablated rats; experiment: Suppressing effect on mouse-killing behavior in olfactory bulb-ablated rats; type: in vivo, male Wistar strain rats
Experimental: as §1
Male Wistar strain rats, weighing 240-260 g, which had developed mouse-killing behavior after ablation of the olfactory bulb according to the method of Z. P. Horovitz [Int. J. Neuropharmacol. 5, 405 (1966)], were used in groups of 15 animals each. Each test compound was given intraperitoneally to the rats in 6 different doses, and 1 hours later the rats were each tested as to whether they killed a mouse or not. ED50 was calculated for each compound.

[3] = system: brain 3-methoxy-4-hydroxyphenylethylene glycol sulfate (MOPEG-SO4); experiment: Effect on brain monoamine metabolites: MOPEG-SO4; type: in vivo, male Wistar strain rats; settings: 100 mg/kg p.o.; for Brain MOPEG-SO4, % of control: *P<0.01
Experimental: as §2

[4] = system: spontaneous and methamphetamine-induced locomotor activities; experiment: Neuroleptics-like activity, overall (Test 2); type: in vivo, male STD-ddY strain mice; settings: overall conclusion
Experimental: Male STD-ddY strain mice, weighing 20-25 g, were used in groups of 10 mice each. Groups of mice were injected intraperitoneally with 4 mg/kg of methamphetamine, and 30 minutes later each test compound was injected intraperitoneally in 3 different doses. One hour after the injection of methamphetamine, locomotor activity of each mouse was measured for 10 minutes with an Animex locomotor activity meter.

[5] = system: spontaneous locomotor activity; experiment: Inhibitory effect on spontaneous locomotor activity; type: in vivo, male STD-ddY strain mice
Experimental: as §1
Male mice of STD-ddY strain, weighing 20-25 g, were used in groups of 5 mice each. Each test compound was given orally to the mice in 5 different doses, and 2 hours later the spontaneous locomotor activity of each mouse was measured for 3 minutes by means of an Animex locomotor activity meter (made by Farad Electronics). ED50 was calculated for each compound. The ED50 means the dose of test compound in which the locomotor activity was reduced to 50% of that of control group receiving saline.

[6] = system: hypothermia induced by reserpine; experiment: Anti-reserpine activity: antagonistic effect on hypothermia induced by reserpine; type: in vivo, male STD-ddY strain mice; settings: p.o.; for ED50: Mus musculus, po, 4 h, reserpine 5 mg/kg i.p.
Experimental: Pharmacological experiments have been done on the compound of the present invention, some known and novel analogous compounds and an antidepressant on the market, as mentioned below. In the experiments, ED50 was calculated by Litchfield-Wilcoxon method. This effect was examined according to the method of […]. 2, 725 (1963)], using male STD-ddY strain mice weighing 20-25 g. […] Rectal temperature of each mouse was measured 4 hours later with a thermister (Shibaura Electric, BMG III-130).

mice = experiment: Acute toxicity; settings: mouse, in vivo
Experimental: (§3) Male STD-ddY strain mice, weighing 20-25 g, were used. Each test compound was given orally or intraperitoneally to the mice (each group: 10 mice) in 5 to 7 different doses, and their mortality was examined during the observation period of 7 days. The median lethal dose (LD50) was calculated for each compound by the probit method.

Acute toxicity = settings: mouse, in vivo, 7 days observation
Experimental: as §3

[7] = system: catalepsy induced by reserpine; experiment: Anti-reserpine activity: antagonistic effect on catalepsy induced by reserpine; type: in vivo, male STD-ddY strain mice; settings: p.o.; for ED50: Mus musculus, po, 1 h, reserpine 5 mg/kg i.p.
Experimental: In the experiments, ED50 was calculated by Litchfield-Wilcoxon method. Male STD-ddY strain mice, weighing […], were used in groups of 10 mice each. […] The mice were tested for catalepsy 1 hour after the administration of test compounds. ED50 was calculated for each compound.

For `CCN1CCN(c2cc(-c3ccccc3)c3ccccc3n2)CC1.Cl.Cl` [A, 2-(4-Ethyl-1-piperazinyl)-4-phenylquinoline dihydrochloride], which ED50 (tremorine-induced tremor; Mus musculus, po, tremorine 20 mg/kg i.p., read-out: Anti-tremorine activity ED50) is on record?
Its ED50 is 9.7 mg/kg.

What about the “Anti-tremorine activity (in words)” value (tremorine-induced tremor; p.o.) of the same compound?
Its value is “more potent than imipramine and almost comparable to biperiden”.

And the “Brain 5-HIAA concentration / serotonin turnover (in words)” value [1]?
The value was “does not affect brain 5-HIAA concentration”.

What about the “Brain 5-HIAA, % of control” value ([1]; 1 hour) of the same compound?
Its value is 118 % of control.

And the “Brain 5-HIAA, % of control” value ([1]; 3 hours)?
Its value is 110 % of control.

And the “Brain 5-HIAA, % of control” value ([1]; 6 hours)?
Its value is 116 % of control.

And the “Anti-reserpine activity (in words)” value (antidepressant activity; hypothermia and catalepsy, p.o.)?
The value was “more potent anti-reserpine activity than imipramine”.

What about the “Antidepressant activity (in words)” value (antidepressant activity; overall conclusion) of the same compound?
The value was “more potent than its analogues, compounds 1 and 2 and also than imipramine”.

And the “Anti-reserpine and anti-tetrabenazine potency relative to compounds 4 and 5” value (antidepressant activity; versus compounds 4 and 5, Table 2, p.o.)?
The value was 2-17 times more potent.

What about the ED50 ([2]; Rattus norvegicus, ip, 1 hour after dosing, read-out: Suppressing effect on mouse-killing behavior of olfactory bulb-ablated rats, ED50) of the same compound?
Its ED50 is 5 mg/kg.

What about the “Suppression of mouse-killing behavior (in words)” value ([2]; versus imipramine, i.p.) of the same compound?
Its value is “as potent as imipramine”.

What about the “Brain MOPEG-SO4 concentration / noradrenaline turnover (in words)” value [3] of the same compound?
Its value is “significant decrease in brain MOPEG-SO4 concentration”.

What about the “Brain MOPEG-SO4, % of control” value ([3]; 1 hour) of the same compound?
Its value is 82 % of control.

What about the “Brain MOPEG-SO4, % of control” value ([3]; 3 hours) of the same compound?
Its value is 70 % of control.

And the “Brain MOPEG-SO4, % of control” value ([3]; 6 hours)?
Its value is 63 % of control.

What about the “Neuroleptics-like activity (in words)” value [4] of the same compound?
The value was “shows some neuroleptics-like effects”.

And the ED50 ([5]; Mus musculus, po, 2 hours after dosing, read-out: Spontan. locomotor ED50)?
The ED50 was 58.7 mg/kg.

And the “Activity relative to chlorpromazine, spontaneous locomotor activity” value ([5]; fraction of chlorpromazine activity, p.o.)?
The value was “about 1/8”.

And the ED50 ([6]; Table 1, read-out: Anti-reserpine activity ED50, hypothermia)?
The ED50 was 5.8 mg/kg.

What about the ED50 ([6]; Table 2, read-out: Anti-reserpine ED50, hypothermia) of the same compound?
The ED50 was 5.8 mg/kg.

What about the “Potency in antagonizing reserpine hypothermia relative to imipramine” value ([6]; versus imipramine) of the same compound?
Its value is 3.7 times more powerful.

What about the “Acute toxicity (in words)” value (mice) of the same compound?
Its value is “comparable to or somewhat weaker than that of imipramine”.

And the LD50 at 168 h (Acute toxicity; ip)?
The LD50 at 168 h was 119 mg/kg.

What about the LD50 at 168 h (Acute toxicity; po) of the same compound?
Its LD50 at 168 h is 568 mg/kg.

What about the ED50 ([7]; Table 1, read-out: Anti-reserpine activity ED50, catalepsy) of the same compound?
The ED50 was 1.5 mg/kg.

And the ED50 ([7]; Table 2, read-out: Anti-reserpine ED50, catalepsy)?
Its ED50 is 1.5 mg/kg.

What about the “Potency in antagonizing reserpine catalepsy relative to imipramine” value ([7]; versus imipramine) of the same compound?
The value was 25.5 times more powerful.
